Data taken from patent US20230286999A1, “ORGANIC COMPOUND, LIGHT-RECEIVING DEVICE, LIGHT-EMITTING AND LIGHT-RECEIVING APPARATUS, AND ELECTRONIC DEVICE” (Semiconductor Energy Laboratory Co., Ltd., priority 2022, published 2023).

Columns and labels:
[1] = Solubility evaluation using a liquid chromatography mass spectrometer; assay type: physicochemical; conditions: for Ratio of chromatogram peak areas (Peak area of material/Peak area of solvent × 100), considered as the solubility: 0.5 mg material in 0.25 mL chloroform + 2.5 mL acetonitrile, filtrate after 18 hours, DPAPhA: 1 mg in 1 mL toluene, 5-fold dilution with acetonitrile, 100% = completely dissolved; for solubility compared with FT2TDMN (in words): chloroform/acetonitrile sample
Procedure: In Example 3, the solubilities of materials that can be used for a photoelectric conversion device of one embodiment of the present invention are described. The solubilities of the materials were measured using a liquid chromatography mass spectrometer.
In Example 3, the solubilities of the organic compound (abbreviation: EtHex-FT2TDMN) represented by Structural Formula (100) in Embodiment 1 and the organic compound (abbreviation: EtHex-BisDCVTTt) represented by Structural Formula (200) in Embodiment 1 were evaluated. As a comparative example, FT2TDMN, which is a material having no branched alkyl, was evaluated. Furthermore, DPAPhA, which is a material with high solubility, was also evaluated as a reference sample.
The solubilities were measured using a liquid chromatography mass spectrometer. Specifically, chromatogram peak areas of the solvent and the material in the sample were obtained, the proportion of the peak area of the material to the peak area of the solvent was calculated, and the calculated value was considered as the solubility.
Note that the solubility of the case where the sample is completely dissolved is 100%. In Example 3, DPAPhA is a reference sample that is completely dissolved. In the case where a chromatogram peak is not detected and an MS spectrum is detected from a sample, the mass of the sample is regarded as being lower than the detection limit and the solubility is 0%.
The liquid chromatography mass spectrometer is constructed of ACQUITY H-Class (produced by Waters Corporation) and Xevo™ G2 Q-TOF MS (produced by Waters Corporation), and ACQUITY UPLC (registered trademark) BEH C8 Column ([…], 2.1×100 mm) (produced by Waters Corporation, hereinafter referred to as Column) was used as a column.
Samples of EtHex-FT2TDMN, EtHex-BisDCVTTt, and FT2TDMN used for solubility evaluation were formed. Specifically, in a reagent bottle made of glass were put 0.5 mg of the material and 0.25 mL of chloroform, and ultrasonic treatment was performed for 1 minute. To the obtained mixture, 2.5 mL of acetonitrile was added, and the resulting mixture was left still. After 18 hours, the resulting mixture was filtrated. With the use of the obtained filtrate as a sample, a solubility test for evaluating the solubility was performed using the liquid chromatography mass spectrometer.
Next, the DPAPhA sample used for solubility evaluation was formed. In a reagent bottle made of glass were put 1 mg of the material and 1 mL of toluene, and ultrasonic treatment was performed for 1 minute. Acetonitrile was added to the obtained solution to make a 5-fold dilution. The dilute solution was used as the sample and took the solubility test with the liquid chromatography mass spectrometer.
A measurement method for the solubility test for evaluating the solubility using the liquid chromatography mass spectrometer is described. As a mobile phase A and a mobile phase B, acetonitrile and a formic acid aqueous solution (0.1%) were used, respectively; the velocity of flow of a solvent was 0.5 mL/min; and the sample injection amount was 5 μL.
(§1) For 1 minute from the beginning of the measurement, the ratio of a mobile phase A to a mobile phase B was set to be 75:25. From 1 minute to 9 minutes, measurement was performed with a linear gradient to the ratio of 95:5. After a lapse of 10 minutes, measurement was performed for 5 minutes with the ratio of 95:5 held.
as §1, with “85:15.” for “75:25.”
For 1 minute from the beginning of the measurement, the ratio of a mobile phase A to a mobile phase B was set to be 40:60. From 1 minute to 9 minutes, measurement was performed with a linear gradient to the ratio of 95:5. […]

[2] = Thermogravimetry-differential thermal analysis (TG-DTA); assay type: physicochemical; conditions: 10° C./min
Procedure: (§2) The thermogravimetry-differential thermal analysis (TG-DTA) of EtHex-FT2TDMN was performed. The measurement was conducted using a high vacuum differential type differential thermal balance (TG-DTA 2410SA, manufactured by Bruker AXS K.K.). The measurement was performed under two conditions. The first measurement was performed at atmospheric pressure at a temperature rising rate of 10° C./min under a nitrogen stream (flow rate: 200 mL/min). The second measurement was performed at 10 Pa at a temperature rising rate of 10° C./min under a nitrogen stream (flow rate: 2 mL/min).
as §2, with “(TG-DTA) of EtHex-BisDCVTTt was performed.” for “(TG-DTA) of EtHex-FT2TDMN was performed.”, “was performed under atmospheric pressure” for “was performed at atmospheric pressure”

[3] = 10 Pa, nitrogen stream 2 mL/min
[4] = atmospheric pressure, nitrogen stream 200 mL/min

| Ratio of chromatogram peak areas (Peak area of material/Peak area of solvent × 100), considered as the solubility [1] [%] | chromatogram peak detection in solubility measurement (in words) ([1]; only an MS spectrum was detected, regarded as below detection limit, solubility 0%) | Compound | solubility compared with FT2TDMN (in words) [1] | temperature (decomposition temperature) at which the weight obtained by thermogravimetry was reduced by 5% [2, 3] [°C] | temperature (decomposition temperature) at which the weight obtained by thermogravimetry was reduced by 5% [2, 4] [°C] |
| --- | --- | --- | --- | --- | --- |
| 100 | – | c1ccc(-c2c3ccccc3c(N(c3ccccc3)c3ccc(N(c4ccccc4)c4ccccc4)cc3)c3ccccc23)cc1 [DPAPhA, reference compound] | – | – | – |
| 18 | – | CCCCC(CC)Cc1cc(-c2cc3sc(-c4cc(CC(CC)CCCC)c(C=C(C#N)C#N)s4)cc3s2)sc1C=C(C#N)C#N (centres unmarked) [EtHex-FT2TDMN, 2,2′-[5,5′-(thieno[3,2-b]thiophene-2,5-diyl)bis(3-(2-ethylhexyl)thiophene-5,2-diyl)]bis(methan-1-yl-1-ylidene)dimalononitrile] | favorable solubilities | 244 | 325 |
| 0 | no chromatogram peak was detected | N#CC(C#N)=Cc1ccc(-c2cc3sc(-c4ccc(C=C(C#N)C#N)s4)cc3s2)s1 [FT2TDMN, reference compound] | – | – | – |

| Compound | Ratio of chromatogram peak areas (Peak area of material/Peak area of solvent × 100), considered as the solubility [1] [%] | chromatogram peak detection in solubility measurement (in words) ([1]; only an MS spectrum was detected, regarded as below detection limit, solubility 0%) | solubility compared with FT2TDMN (in words) [1] | temperature (decomposition temperature) at which the weight obtained by thermogravimetry was reduced by 5% [2, 3] [°C] | temperature (decomposition temperature) at which the weight obtained by thermogravimetry was reduced by 5% [2, 4] [°C] |
| --- | --- | --- | --- | --- | --- |
| CCCCC(CC)Cc1cc(-c2cc3sc(-c4cc5sc(-c6cc(CC(CC)CCCC)c(C=C(C#N)C#N)s6)cc5s4)cc3s2)sc1C=C(C#N)C#N (centres unmarked) [EtHex-BisDCVTTt] | 3.5 | – | favorable solubilities | 295 | 362 |
